Values quoted from earlier work as cited in patent US9557341B2, “Risk assessment for cutaneous adverse drug reactions from antiretroviral agent” (priority 2008, dated 2017).
Read-outs that look alike come from different tables or passages of the source.

Details: cited from earlier work; for hypersensitivity reaction incidence: mix French population

| SMILES | rate of drug rash (human, in vivo) [%] | rate of hepatitis (human, in vivo) [%] | odds ratios, hypersensitivity and HLA-B*5701 (Caucasians) | rate of unwarranted interruptions of therapy (after HLA-B*5701 screening) [%] | rate of unwarranted interruptions of therapy (before HLA-B*5701 screening) [%] | negative predictive value of HLA-B*5701 for hypersensitivity (every ethnic studies) | hypersensitivity syndrome, cases (human, in vivo) | hypersensitivity reaction incidence (after HLA-B*5701 screening) [%] | hypersensitivity reaction incidence (before HLA-B*5701 screening) [%] |
| --- | --- | --- | --- | --- | --- | --- | --- | --- | --- |
| O=C1Nc2ccc(Cl)cc2[C@@](C#CC2CC2)(C(F)(F)F)O1 [EFV, efavirenz] | 11 | 9 |  |  |  |  |  |  |  |
| Nc1nc(NC2CC2)c2ncn([C@H]3C=C[C@@H](CO)C3)c2n1 [abacavir] |  |  | 117 | 0.73 | 10.2 | more than 90% | about 5% | 0 | 12 |
